Measured values taken from patent publication US11807835B2, “Detergent compositions containing a stabilized enzyme by phosphonates” (ECOLAB USA INC., priority 2016, dated 2023).

Assays:
Assay type in all cases: biochemical
amylase = assay: Amylase activity retention in detergent use solution (4000 ppm, 5 GPG water; ethylidene substrate EPS, HEPES buffer pH 8.0); conditions: base formula
Experimental: (§1) The enzyme activities in the detergents with different phosphonate levels were tested at 4000 ppm in 5 grains per gallon (GPG) water at 120° F. with various time points collected up to 4 hours, after a use solution was generated from the detergent composition. During the tests, the samples at different time points were collected and immediately frozen in an acetone/dry ice bath and stored in −80° C. before the activity of the enzyme was evaluated. For the use of such an assay, t=0 min was the reference point for 100% enzyme activity.
(§2) Assays of enzyme activity in formulations (% retention) were conducted to simulate a presoak condition in a beaker using the chemistry, temperature, and pH conditions relevant to manual warewash or presoak applications. Enzyme activity is an indicator of the stability of the enzyme in the detergent, specifically in an aqueous use solution within a sump (which is under conditions of high pH, temperature and dilution).
(§3) Enzyme activity under presoak or manual warewash conditions was traced quantitatively using a standard protease assay. Samples were prepared under bench top conditions, whereby the use solution from a detergent composition or detergent was obtained and maintained at a presoak or manual warewash temperature in a stirring water bath. After the time course for assessing enzyme stability is initiated, aliquots were taken at various time points and flash-frozen. A time=0 sample was prepared for each series by dissolving the detergent formulation at room temperature, mixing thoroughly, and flash freezing. Samples were thawed and diluted as necessary in an assay buffer usually for use in the protease assay. A glycine buffer at pH 9.0 is used here. The assay monitored the direct reaction of the protease on a small, commercially available peptidyl substrate, with liberation of the product providing correlation to the active enzyme content. The product was detected using a plate reader with an appreciable dynamic range (upper absorbance limit of the instrument >3.5). Enzyme activity levels were assessed relative to a calibration curve with average values for replicate tests used to map protease stability under presoak or manual warewash use conditions. Enzyme retention at each time point was calculated as the % enzyme activity relative to the time=0 sample.
(§4) The analysis by lipase and amylase assay was conducted similarly, except with a different substrate and buffers. For lipase activity, the substrate is p-nitrophenyl valerate, and for amylase, the substrate is an ethylidene substrate (EPS). The buffer used in lipase assay is TRIS (Tris(hydroxymethyl)aminomethane) buffer at pH 8.0, and in amylase assay HEPES (4-(2-hydroxyethyl)-1-piperazineethanesulfonic acid) buffer at pH 8.0.

lipase = assay: Lipase activity retention in detergent use solution (4000 ppm, 5 GPG water; p-nitrophenyl valerate, TRIS buffer pH 8.0); conditions: base formula
Experimental: as §1, with “activities in the detergents with different phosphonate levels were tested at 4000 ppm in 5 grains per gallon (GPG) water at 120° F. with various time points” left out
as §2, §3, §4

[1] = tested on: enzyme (protease, amylase, lipase); assay: Overall effects of phosphonates on enzyme activity (Table 3); conditions: overall effect of the phosphonate on enzyme activity in the detergent use solution
Experimental: as §1, §2
The relative enzyme activities in a use solution of the tested detergent compositions containing a different phosphonate at different concentrations over a period time are listed in Table 4A-Table 4E, Table 5A-Table 5E, and Table 6A-Table 6F.

[2] = phosphonate 0.3 wt-%, use solution at 120° F., time 0 min
[3] = phosphonate 0.3 wt-%, use solution at 120° F., time 5 min
[4] = phosphonate 0.3 wt-%, use solution at 120° F., time 10 min
[5] = phosphonate 0.3 wt-%, use solution at 120° F., time 20 min
[6] = phosphonate 0.3 wt-%, use solution at 120° F., time 40 min
[7] = phosphonate 0.3 wt-%, use solution at 120° F., time 60 min
[8] = phosphonate 0.3 wt-%, use solution at 120° F., time 90 min
[9] = phosphonate 0.3 wt-%, use solution at 120° F., time 120 min
[10] = phosphonate 0.3 wt-%, use solution at 120° F., time 150 min
[11] = phosphonate 0.3 wt-%, use solution at 120° F., time 180 min
[12] = phosphonate 0.3 wt-%, use solution at 120° F., time 210 min
[13] = phosphonate 0.3 wt-%, use solution at 120° F., time 240 min
[14] = phosphonate 0.6 wt-%, use solution at 120º F., time 0 min
[15] = phosphonate 0.6 wt-%, use solution at 120º F., time 5 min
[16] = phosphonate 0.6 wt-%, use solution at 120º F., time 10 min
[17] = phosphonate 0.6 wt-%, use solution at 120º F., time 20 min
[18] = phosphonate 0.6 wt-%, use solution at 120º F., time 40 min
[19] = phosphonate 0.6 wt-%, use solution at 120º F., time 60 min
[20] = phosphonate 0.6 wt-%, use solution at 120º F., time 90 min
[21] = phosphonate 0.6 wt-%, use solution at 120º F., time 120 min
[22] = phosphonate 0.6 wt-%, use solution at 120º F., time 150 min
[23] = phosphonate 0.6 wt-%, use solution at 120º F., time 180 min
[24] = phosphonate 0.6 wt-%, use solution at 120º F., time 210 min
[25] = phosphonate 0.6 wt-%, use solution at 120º F., time 240 min

Substance: Polyamino Polyether Methylene Phosphonic Acid [PAPEMP]
- Relative Amylase Enzyme Activity (amylase; [2]): 45.92%
- Relative Amylase Enzyme Activity (amylase; [3]): 100.00%
- Relative Amylase Enzyme Activity (amylase; [4]): 101.33%
- Relative Amylase Enzyme Activity (amylase; [5]): 101.28%
- Relative Amylase Enzyme Activity (amylase; [6]): 89.91%
- Relative Amylase Enzyme Activity (amylase; [7]): 93.07%
- Relative Amylase Enzyme Activity (amylase; [8]): 89.58%
- Relative Amylase Enzyme Activity (amylase; [9]): 89.74%
- Relative Amylase Enzyme Activity (amylase; [10]): 92.85%
- Relative Amylase Enzyme Activity (amylase; [11]): 87.45%
- Relative Amylase Enzyme Activity (amylase; [12]): 93.95%
- Relative Amylase Enzyme Activity (amylase; [13]): 108.16%
- Relative Amylase Enzyme Activity (amylase; [14]): 100.00%
- Relative Amylase Enzyme Activity (amylase; [15]): 91.71%
- Relative Amylase Enzyme Activity (amylase; [16]): 99.05%
- Relative Amylase Enzyme Activity (amylase; [17]): 94.55%
- Relative Amylase Enzyme Activity (amylase; [18]): 97.22%
- Relative Amylase Enzyme Activity (amylase; [19]): 97.94%
- Relative Amylase Enzyme Activity (amylase; [20]): 101.28%
- Relative Amylase Enzyme Activity (amylase; [21]): 99.25%
- Relative Amylase Enzyme Activity (amylase; [22]): 105.34%
- Relative Amylase Enzyme Activity (amylase; [23]): 98.44%
- Relative Amylase Enzyme Activity (amylase; [24]): 101.64%
- Relative Amylase Enzyme Activity (amylase; [25]): 96.02%
- Relative Amylase Enzyme Activity (amylase; phosphonate at 0.1% elemental phosphorus level, use solution at 120º F., time 0 min): 100.00%
- Relative Amylase Enzyme Activity (amylase; phosphonate at 0.1% elemental phosphorus level, use solution at 120º F., time 5 min): 85.10%
- Relative Amylase Enzyme Activity (amylase; phosphonate at 0.1% elemental phosphorus level, use solution at 120º F., time 10 min): 95.50%
- Relative Amylase Enzyme Activity (amylase; phosphonate at 0.1% elemental phosphorus level, use solution at 120º F., time 20 min): 96.02%
- Relative Amylase Enzyme Activity (amylase; phosphonate at 0.1% elemental phosphorus level, use solution at 120º F., time 40 min): 91.46%
- Relative Amylase Enzyme Activity (amylase; phosphonate at 0.1% elemental phosphorus level, use solution at 120º F., time 60 min): 97.42%
- Relative Amylase Enzyme Activity (amylase; phosphonate at 0.1% elemental phosphorus level, use solution at 120º F., time 90 min): 89.60%
- Relative Amylase Enzyme Activity (amylase; phosphonate at 0.1% elemental phosphorus level, use solution at 120º F., time 120 min): 99.26%
- Relative Amylase Enzyme Activity (amylase; phosphonate at 0.1% elemental phosphorus level, use solution at 120º F., time 150 min): 101.88%
- Relative Amylase Enzyme Activity (amylase; phosphonate at 0.1% elemental phosphorus level, use solution at 120º F., time 180 min): 91.85%
- Relative Amylase Enzyme Activity (amylase; phosphonate at 0.1% elemental phosphorus level, use solution at 120º F., time 210 min): 99.00%
- Relative Amylase Enzyme Activity (amylase; phosphonate at 0.1% elemental phosphorus level, use solution at 120º F., time 240 min): 96.59%
- Relative Lipase Enzyme Activity (lipase; [2]): 49.99%
- Relative Lipase Enzyme Activity (lipase; [3]): 100.00%
- Relative Lipase Enzyme Activity (lipase; [4]): 92.85%
- Relative Lipase Enzyme Activity (lipase; [5]): 77.81%
- Relative Lipase Enzyme Activity (lipase; [6]): 54.24%
- Relative Lipase Enzyme Activity (lipase; [7]): 51.08%
- Relative Lipase Enzyme Activity (lipase; [8]): 45.80%
- Relative Lipase Enzyme Activity (lipase; [9]): 36.29%
- Relative Lipase Enzyme Activity (lipase; [10]): 33.14%
- Relative Lipase Enzyme Activity (lipase; [11]): 28.25%
- Relative Lipase Enzyme Activity (lipase; [12]): 26.56%
- Relative Lipase Enzyme Activity (lipase; [13]): 24.03%
- Relative Lipase Enzyme Activity (lipase; [14]): 100.00%
- Relative Lipase Enzyme Activity (lipase; [15]): 86.04%
- Relative Lipase Enzyme Activity (lipase; [16]): 83.42%
- Relative Lipase Enzyme Activity (lipase; [17]): 73.22%
- Relative Lipase Enzyme Activity (lipase; [18]): 64.86%
- Relative Lipase Enzyme Activity (lipase; [19]): 59.26%
- Relative Lipase Enzyme Activity (lipase; [20]): 47.33%
- Relative Lipase Enzyme Activity (lipase; [21]): 42.05%
- Relative Lipase Enzyme Activity (lipase; [22]): 38.58%
- Relative Lipase Enzyme Activity (lipase; [23]): 29.04%
- Relative Lipase Enzyme Activity (lipase; [24]): 31.37%
- Relative Lipase Enzyme Activity (lipase; [25]): 29.77%
- Relative Lipase Enzyme Activity (lipase; phosphonate at 0.1% elemental phosphorus, at 120º F. or at room temperature (as titled), time 0 min): 100.00%
- Relative Lipase Enzyme Activity (lipase; phosphonate at 0.1% elemental phosphorus, at 120º F. or at room temperature (as titled), time 5 min): 91.09%
- Relative Lipase Enzyme Activity (lipase; phosphonate at 0.1% elemental phosphorus, at 120º F. or at room temperature (as titled), time 10 min): 83.66%
- Relative Lipase Enzyme Activity (lipase; phosphonate at 0.1% elemental phosphorus, at 120º F. or at room temperature (as titled), time 20 min): 75.51%
- Relative Lipase Enzyme Activity (lipase; phosphonate at 0.1% elemental phosphorus, at 120º F. or at room temperature (as titled), time 40 min): 58.49%
- Relative Lipase Enzyme Activity (lipase; phosphonate at 0.1% elemental phosphorus, at 120º F. or at room temperature (as titled), time 60 min): 54.87%
- Relative Lipase Enzyme Activity (lipase; phosphonate at 0.1% elemental phosphorus, at 120º F. or at room temperature (as titled), time 90 min): 48.29%
- Relative Lipase Enzyme Activity (lipase; phosphonate at 0.1% elemental phosphorus, at 120º F. or at room temperature (as titled), time 120 min): 42.46%
- Relative Lipase Enzyme Activity (lipase; phosphonate at 0.1% elemental phosphorus, at 120º F. or at room temperature (as titled), time 150 min): 38.07%
- Relative Lipase Enzyme Activity (lipase; phosphonate at 0.1% elemental phosphorus, at 120º F. or at room temperature (as titled), time 180 min): 33.57%
- Relative Lipase Enzyme Activity (lipase; phosphonate at 0.1% elemental phosphorus, at 120º F. or at room temperature (as titled), time 210 min): 31.15%
- Relative Lipase Enzyme Activity (lipase; phosphonate at 0.1% elemental phosphorus, at 120º F. or at room temperature (as titled), time 240 min): 31.01%
- Stability (effects on enzyme activity) [1]: Yes
